In patent US11261209B2, “Enhanced coupling of stereodefined oxazaphospholidine phosphoramidite monomers to nucleoside or oligonucleotide” (Roche Innovation Center Copenhagen A/S, priority 2016, dated 2022):
“Also recorded” adds a separate entry of the source.

Legend:
[1] = Solubility of oxazaphospholidine phosphoramidite monomers in solvent, visual examination; assay type: physicochemical; details: for Soluble after: 0 h MeCN + 2.5% pyridine / Soluble after: 0 h MeCN / Soluble after: 24 h MeCN + 2.5% pyridine / Soluble after: 24 h MeCN: 0.013 mmol amidite in 0.13 mL, room temperature; for Solubility after 24 hours in MeCN with addition of pyridine: MeCN with addition of pyridine (2.5%)
Description: To a 1.5 mL vial was added 0.013 mmol of amidite after which the solid material was dissolved in 0.13 mL of solvent. Hereafter, the vial was capped, vortexed, and finally left at room temperature for 24 hours. Then, the dissolved material was visually examined regarding the solubility (FIG. 1). If the solution appeared cloudy or otherwise non-homogenous the solubility was set to “no”. If the solution appeared completely homogenous the solubility was set to “yes” (examination repeated after 24 hours).
Solubility of the following monomers was determined as per example 7.

[2] = Stability of amidite in solution by HPLC-MS (UV 254 nm, normalised to 0 hours); assay type: physicochemical
Description: Stability Determination Method: To complete the analysis the stability of the amidite was investigated using an Agilent 1100 series HPLC-MS with a gradient from 80% A (1% NH4OH in H2O) to 100% B (20% A in MeCN) and a Waters Xterra MS C18 2.1×100 mm column. The mass and UV peak of the mother compound was identified at 0 hours and at 24 hours. Hereafter, the relative stability compared to other by-products was reported by integrating the UV chromatogram (254 nm) and normalizing the area to the chromatogram recorded at 0 hours (FIG. 2).
To a 1.5 mL vial was added 0.013 mmol of amidite after which the solid material was dissolved in 0.13 mL of solvent (with and without Et3N, approximately 5-10 eq). Hereafter, the vial was capped, vortexed, and finally left at room temperature for 24 hours. To investigate the stability of the amidite an Agilent 1100 series HPLC-MS with a gradient from 80% A (1% NH4OH in H2O) to 100% B (20% A in MeCN) and a Waters Xterra MS C18 2.1×100 mm column was used. The mass and UV peak of the mother compound was identified at 0 hours and at 24 hours. Hereafter, the relative stability compared to other by-products was reported. This was again repeated after 48 hours.

Row | SMILES | Soluble after: 0 h MeCN + 2.5% pyridine [1] | Soluble after: 0 h MeCN ([1]; MeCN) | Soluble after: 24 h MeCN + 2.5% pyridine [1] | Soluble after: 24 h MeCN ([1]; MeCN) | also measured
1 | COc1ccc(C(OC[C@H]2O[C@@H](n3cnc4c(NC(=O)c5ccccc5)ncnc43)C[C@@H]2O[P@]2O[C@@H](c3ccccc3)[C@H]3CCCN32)(c2ccccc2)c2ccc(OC)cc2)cc1 [D-DNA A] | Yes | Yes | Yes | No | Solubility after 24 hours in MeCN with addition of pyridine [1]: solubility of the monomer is preserved; Solubility after 24 hours in MeCN ([1]; MeCN): not soluble
2 | COc1ccc(C(OC[C@H]2O[C@@H](n3ccc(NC(C)=O)nc3=O)C[C@@H]2O[P@]2O[C@@H](c3ccccc3)[C@H]3CCCN32)(c2ccccc2)c2ccc(OC)cc2)cc1 [D-DNA C] | Yes | Yes | Yes | No | 
3 | COc1ccc(C(OC[C@H]2O[C@@H](n3cnc4c(=O)[nH]c(/N=C/N(C)C)nc43)C[C@@H]2O[P@]2O[C@@H](c3ccccc3)[C@H]3CCCN32)(c2ccccc2)c2ccc(OC)cc2)cc1 [D-DNA G] | Yes | Yes | Yes | No | 
4 | COc1ccc(C(OC[C@H]2O[C@@H](n3cc(C)c(=O)[nH]c3=O)C[C@@H]2O[P@]2O[C@@H](c3ccccc3)[C@H]3CCCN32)(c2ccccc2)c2ccc(OC)cc2)cc1 [D-DNA T] | Yes | Yes | Yes | No | 
5 | COc1ccc(C(OCC23COC(C(n4cnc5c(NC(=O)c6ccccc6)ncnc54)O2)C3OP2OC(c3ccccc3)C3CCCN32)(c2ccccc2)c2ccc(OC)cc2)cc1 [D-LNA A] | Yes | Yes | Yes | No | Solubility after 24 hours in MeCN with addition of pyridine [1]: solubility of the monomer is preserved; Solubility after 24 hours in MeCN ([1]; MeCN): not soluble
6 | COc1ccc(C(OCC23COC(C(n4cnc5c(=O)[nH]c(N=CN(C)C)nc54)O2)C3OP2OC(c3ccccc3)C3CCCN32)(c2ccccc2)c2ccc(OC)cc2)cc1 [D-LNA G] | Yes | Yes | Yes | Yes | 
7 | COc1ccc(C(OCC23COC(C(n4cc(C)c(=O)[nH]c4=O)O2)C3OP2OC(c3ccccc3)C3CCCN32)(c2ccccc2)c2ccc(OC)cc2)cc1 [D-LNA T] | Yes | Yes | Yes | Yes | 
8 | COc1ccc(C(OC[C@H]2O[C@@H](n3cnc4c(NC(=O)c5ccccc5)ncnc43)C[C@@H]2O[P@@]2O[C@H](c3ccccc3)[C@@H]3CCCN32)(c2ccccc2)c2ccc(OC)cc2)cc1 [L-DNA A] | Yes | Yes | Yes | No | Solubility after 24 hours in MeCN with addition of pyridine [1]: solubility of the monomer is preserved; also recorded: kept in solution; Solubility after 24 hours in MeCN ([1]; MeCN): not soluble; also recorded: not sufficient to keep the monomer in solution
9 | COc1ccc(C(OC[C@H]2O[C@@H](n3ccc(NC(C)=O)nc3=O)C[C@@H]2O[P@@]2O[C@H](c3ccccc3)[C@@H]3CCCN32)(c2ccccc2)c2ccc(OC)cc2)cc1 [L-DNA C] | Yes | Yes | Yes | No | 
10 | COc1ccc(C(OC[C@H]2O[C@@H](n3cnc4c(=O)[nH]c(/N=C/N(C)C)nc43)C[C@@H]2O[P@@]2O[C@H](c3ccccc3)[C@@H]3CCCN32)(c2ccccc2)c2ccc(OC)cc2)cc1 [L-DNA G] | Yes | Yes | Yes | No | 
11 | COc1ccc(C(OC[C@H]2O[C@@H](n3cc(C)c(=O)[nH]c3=O)C[C@@H]2O[P@@]2O[C@H](c3ccccc3)[C@@H]3CCCN32)(c2ccccc2)c2ccc(OC)cc2)cc1 [L-DNA T] | Yes | Yes | Yes | No | 
12 | COc1ccc(C(OCC23COC(C(n4cnc5c(NC(=O)c6ccccc6)ncnc54)O2)C3OP2OC(c3ccccc3)C3CCCN32)(c2ccccc2)c2ccc(OC)cc2)cc1 [L-LNA A] |  |  |  |  | Stability in MeCN with Et3N after 24 hours ([2]; MeCN + Et3N approximately 5-10 eq, 24 hours): completely stable; Stability in MeCN with Et3N after 48 hours ([2]; MeCN + Et3N approximately 5-10 eq, 48 hours): majority of the L-LNA A is preserved; Stability in MeCN after 24 hours ([2]; MeCN only, 24 hours, room temperature): most of the L-LNA A was degraded; Stability in MeCN after 48 hours ([2]; MeCN only, 48 hours, room temperature): completely degraded
13 | COc1ccc(C(OCC23COC(C(n4cnc5c(=O)[nH]c(N=CN(C)C)nc54)O2)C3OP2OC(c3ccccc3)C3CCCN32)(c2ccccc2)c2ccc(OC)cc2)cc1 [L-LNA G-DMF] | No | No | No | No | Solubility in most solvents ([1]; MeCN, MeCN:DCE, MeCN:Tol, MeCN:acetone, Dioxane, and THF): unsoluble; Solubility in remaining solvents ([1]; MeCN:DCM, DMF, DMSO, NMP, DCM, DCE, and Toluene): soluble; Solubility in acetonitrile solvents ([1]; acetonitrile solvents): poorly soluble; Amidite left after 24 hours ([2]; DCM (best solvent), 24 hours, room temperature): 10%; Stability in the solvents where the monomer is soluble ([2]; MeCN:DCM, DMF, DMSO, NMP, DCM, DCE, and Toluene, 24 hours): tremendous instability
14 | COc1ccc(C(OC[C@@]23CO[C@@H]([C@H](n4cnc5c(=O)[nH]c(NC(=O)C(C)C)nc54)O2)[C@@H]3O[P@]2O[C@H](c3ccccc3)[C@@H]3CCCN32)(c2ccccc2)c2ccc(OC)cc2)cc1 [L-LNA-G-iBu] | Yes | Yes | Yes |  | Solubility in all solvents investigated ([1]; all solvents investigated (12 different)): soluble
